Data published in PubChem BioAssay (NCI).
Values joined by “and” are separate entries in the source; they are usually repeats but may differ in a detail not shown here. Equal values may be shown once.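 Compound exposure: 48 hours, 5 concentrations, 96-well plates. GI50 = concentration required for 50% inhibition of growth. Definition used: TGI = concentration required for complete inhibition of growth.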

Legend:
Test in all cases: NCI-60 cell line screen, 48 h
HT29 colon = tested on: HT29 colon
SK-MEL-2 melanoma = tested on: SK-MEL-2 melanoma
K-562 leukemia = tested on: K-562 leukemia
HOP-92 NSCLC = tested on: HOP-92 NSCLC
MOLT-4 leukemia = tested on: MOLT-4 leukemia
NCI-H522 lung = tested on: NCI-H522 lung
SR leukemia = tested on: SR leukemia
RXF 393 renal = tested on: RXF 393 renal
SN12C renal = tested on: SN12C renal
CAKI-1 renal = tested on: CAKI-1 renal

Structure (SMILES)	GI50 (HT29 colon)	TGI (HT29 colon)	GI50 (SK-MEL-2 melanoma)	TGI (SK-MEL-2 melanoma)	GI50 (K-562 leukemia)	TGI (K-562 leukemia)	GI50 (HOP-92 NSCLC)	TGI (HOP-92 NSCLC)	GI50 (MOLT-4 leukemia)	TGI (MOLT-4 leukemia)	GI50 (NCI-H522 lung)	TGI (NCI-H522 lung)	GI50 (SR leukemia)	TGI (SR leukemia)	GI50 (RXF 393 renal)	TGI (RXF 393 renal)	GI50 (SN12C renal)	TGI (SN12C renal)	GI50 (CAKI-1 renal)	TGI (CAKI-1 renal)
CN(C)CC(C(=O)c1ccccc1)c1ccccc1 (stereo not given)	0.662 µM	2.15 µM	3.35 µM	7.87 µM	0.483 µM	10.1 µM	2.28 µM	9.54 µM	4.2 µM	31.3 µM	1.3 µM	2.79 µM	2.28 µM	7.51 µM	1.69 µM	4.46 µM	1.57 µM	3.35 µM	0.966 µM	2.67 µM
COc1cc2c(cc1OC)C(CCc1ccc(Cl)cc1)N(C)CC2 (stereo not given)	14.2 µM	86 µM	19.7 µM	37.1 µM	24.7 µM	66.1 µM	13.6 µM	92.7 µM	35.7 µM	94.9 µM	20 µM	38.6 µM	28.4 µM	63.4 µM	17.8 µM	58.3 µM	39.9 µM	> 100 µM	10.7 µM	31.7 µM
O=C1Cc2cc(CCn3ccnc3)c(Cl)cc2N1	> 100 µM	> 100 µM	5.78 µM	73.6 µM	8.26 µM	> 100 µM	3.54 µM	91.5 µM	56.7 µM	> 100 µM	4.74 µM	47.9 µM	9.24 µM	> 100 µM	6.28 µM	> 100 µM	16.5 µM	> 100 µM	6.32 µM	> 100 µM
CCOc1ccc(Cc2nccc3cc(OCC)c(OCC)cc23)cc1OCC	0.863 µM	12.6 µM	11.7 µM	26.1 µM	3.54 µM	49.9 µM	0.29 µM	8.94 µM	5.83 µM	34.2 µM	2.09 µM	15 µM	12.6 µM	56.2 µM	10.4 µM	23.1 µM	4.08 µM	22.3 µM	4.53 µM	41 µM
Oc1nc(NCCc2ccccc2)sc1/C=C1\C=Nc2ncccc21	2.8 µM and 4 µM	11.4 µM and 26.7 µM	2.4 µM and 2.94 µM	6.65 µM and 9.08 µM	4.12 µM and 4.7 µM	20 µM and 79.6 µM	1.3 µM and 1.43 µM	8.82 µM and 7.62 µM	3.17 µM and 2.77 µM	11.6 µM and 11 µM	1.43 µM and 1.39 µM	12.1 µM and 11.6 µM	0.397 µM and 0.554 µM	17.7 µM and 7.79 µM	1.91 µM and 2.53 µM	4.08 µM and 5.72 µM	2.63 µM and 3.92 µM	12.9 µM and 74.1 µM	2.61 µM and 5.34 µM	14 µM and > 100 µM
Cc1ccc(/C=C(\C#N)n2nnc3cc(Cl)c(Cl)cc32)cc1	2.59 µM	13.6 µM	3.96 µM	> 100 µM	0.892 µM	33.2 µM	1.61 µM	9.65 µM	2.73 µM	> 100 µM	2.72 µM	14.9 µM	0.417 µM	40.6 µM	2.01 µM	5.69 µM	3.13 µM	13.1 µM	1.09 µM	13.8 µM
